# Assay results from PubChem BioAssay (NCI).
#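 Briefly, cells in 96-well plates were exposed to five compound concentrations for 48 h, and endpoints were estimated by linear interpolation. GI50 marks 50% less growth. Definition used: TGI = concentration required for complete inhibition of growth.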
# Key:
# Test in all cases: growth of human tumour cells (NCI), 48 h
# SF-268 CNS = system: SF-268 CNS
# MCF7 breast = system: MCF7 breast
# SF-539 CNS = system: SF-539 CNS
# NCI-H226 lung = system: NCI-H226 lung
# HT29 colon = system: HT29 colon
# TK-10 renal = system: TK-10 renal
# NCI/ADR-RES ovarian = system: NCI/ADR-RES ovarian
# IGROV1 ovarian = system: IGROV1 ovarian
# PC-3 prostate = system: PC-3 prostate
# DU-145 prostate = system: DU-145 prostate
# OVCAR-3 ovarian = system: OVCAR-3 ovarian
# CAKI-1 renal = system: CAKI-1 renal
# OVCAR-8 ovarian = system: OVCAR-8 ovarian
# SF-295 CNS = system: SF-295 CNS
# BT-549 breast = system: BT-549 breast
# T-47D breast = system: T-47D breast
# SK-OV-3 ovarian = system: SK-OV-3 ovarian
# NCI-H23 lung = system: NCI-H23 lung
# A498 renal = system: A498 renal
# SK-MEL-5 melanoma = system: SK-MEL-5 melanoma
# EKVX NSCLC = system: EKVX NSCLC
# U251 CNS = system: U251 CNS
# COLO 205 colon = system: COLO 205 colon
# SN12C renal = system: SN12C renal
# OVCAR-4 ovarian = system: OVCAR-4 ovarian
# SK-MEL-2 melanoma = system: SK-MEL-2 melanoma
# HL-60(TB) leukemia = system: HL-60(TB) leukemia
# KM12 colon = system: KM12 colon
# NCI-H522 lung = system: NCI-H522 lung
# SNB-19 CNS = system: SNB-19 CNS
# HOP-92 NSCLC = system: HOP-92 NSCLC
# HOP-62 NSCLC = system: HOP-62 NSCLC
# A549 NSCLC = system: A549 NSCLC
# ACHN renal = system: ACHN renal
# UACC-62 melanoma = system: UACC-62 melanoma
# HCT-15 colon = system: HCT-15 colon
# LOX IMVI melanoma = system: LOX IMVI melanoma
# OVCAR-5 ovarian = system: OVCAR-5 ovarian
# NCI-H460 lung = system: NCI-H460 lung
# M14 melanoma = system: M14 melanoma
# SK-MEL-28 melanoma = system: SK-MEL-28 melanoma
# MDA-MB-231 breast = system: MDA-MB-231 breast
# MALME-3M melanoma = system: MALME-3M melanoma
# UACC-257 melanoma = system: UACC-257 melanoma
# K-562 leukemia = system: K-562 leukemia
# 786-0 renal = system: 786-0 renal
# RXF 393 renal = system: RXF 393 renal
# SNB-75 CNS = system: SNB-75 CNS
# SW-620 colon = system: SW-620 colon
# HS 578T breast = system: HS 578T breast
# HCT-116 colon = system: HCT-116 colon
# UO-31 renal = system: UO-31 renal
# MDA-MB-435 = system: MDA-MB-435
# HCC-2998 colon = system: HCC-2998 colon
# MOLT-4 leukemia = system: MOLT-4 leukemia
# CCRF-CEM leukemia = system: CCRF-CEM leukemia
# RPMI-8226 leukemia = system: RPMI-8226 leukemia
smiles,measurement,setting,value
CCOC(=O)C1=C(C)NC(=O)NC1c1ccc(N(CCCl)CCCl)cc1Cl (configuration not stated),TGI,SF-268 CNS,28.8 µM
same,TGI,MCF7 breast,26.5 µM
same,TGI,SF-539 CNS,30.9 µM
same,TGI,NCI-H226 lung,28.8 µM
same,TGI,HT29 colon,29.5 µM
same,TGI,TK-10 renal,33.6 µM
same,TGI,NCI/ADR-RES ovarian,30.3 µM
same,TGI,IGROV1 ovarian,28.4 µM
same,TGI,PC-3 prostate,28.5 µM
same,TGI,DU-145 prostate,32.1 µM
same,TGI,OVCAR-3 ovarian,28.8 µM
same,TGI,CAKI-1 renal,30.9 µM
same,TGI,OVCAR-8 ovarian,25.6 µM
same,TGI,SF-295 CNS,29.2 µM
same,TGI,BT-549 breast,28.9 µM
same,TGI,T-47D breast,19.5 µM
same,TGI,SK-OV-3 ovarian,33.6 µM
same,TGI,NCI-H23 lung,32.7 µM
same,TGI,A498 renal,29.4 µM
same,TGI,SK-MEL-5 melanoma,27.8 µM
same,TGI,EKVX NSCLC,45.8 µM
same,TGI,U251 CNS,30.2 µM
same,TGI,COLO 205 colon,32.6 µM
same,TGI,SN12C renal,29.8 µM
same,TGI,OVCAR-4 ovarian,33.1 µM
same,TGI,SK-MEL-2 melanoma,29.8 µM
same,TGI,HL-60(TB) leukemia,13.4 µM
same,TGI,KM12 colon,33.9 µM
same,TGI,NCI-H522 lung,26.4 µM
same,TGI,SNB-19 CNS,31.2 µM
same,TGI,HOP-92 NSCLC,25.7 µM
same,TGI,HOP-62 NSCLC,28.5 µM
same,TGI,A549 NSCLC,26.6 µM
same,TGI,ACHN renal,27.5 µM
same,TGI,UACC-62 melanoma,22.4 µM
same,TGI,HCT-15 colon,30.8 µM
same,TGI,LOX IMVI melanoma,29.4 µM
same,TGI,OVCAR-5 ovarian,31.8 µM
same,TGI,NCI-H460 lung,25.6 µM
same,TGI,M14 melanoma,29.2 µM
same,TGI,SK-MEL-28 melanoma,31.4 µM
same,TGI,MDA-MB-231 breast,26.5 µM
same,TGI,MALME-3M melanoma,28.1 µM
same,TGI,UACC-257 melanoma,29.5 µM
same,TGI,K-562 leukemia,24.3 µM
same,TGI,786-0 renal,29.2 µM
same,TGI,RXF 393 renal,30.8 µM
same,TGI,SNB-75 CNS,28.1 µM
same,TGI,SW-620 colon,31.8 µM
same,TGI,HS 578T breast,36.1 µM
same,TGI,HCT-116 colon,27.4 µM
same,TGI,UO-31 renal,27.3 µM
same,TGI,MDA-MB-435,33.1 µM
CCOc1cc(F)c([N+](=O)[O-])cc1[N+](=O)[O-],GI50,SF-268 CNS,2.56 µM
same,TGI,SF-268 CNS,6.46 µM
same,GI50,MCF7 breast,0.886 µM
same,TGI,MCF7 breast,17.3 µM
same,GI50,SF-539 CNS,1.85 µM
same,TGI,SF-539 CNS,3.85 µM
same,GI50,NCI-H226 lung,2.81 µM
same,TGI,NCI-H226 lung,8.48 µM
same,GI50,HCC-2998 colon,1.87 µM
same,TGI,HCC-2998 colon,3.31 µM
same,GI50,TK-10 renal,2.91 µM
same,TGI,TK-10 renal,10.1 µM
same,GI50,NCI/ADR-RES ovarian,2.88 µM
same,TGI,NCI/ADR-RES ovarian,8 µM
same,GI50,PC-3 prostate,4.63 µM
same,TGI,PC-3 prostate,18 µM
same,GI50,DU-145 prostate,1.99 µM
same,TGI,DU-145 prostate,4.04 µM
same,GI50,OVCAR-3 ovarian,1.83 µM
same,TGI,OVCAR-3 ovarian,3.23 µM
same,GI50,CAKI-1 renal,1.19 µM
same,TGI,CAKI-1 renal,2.42 µM
same,GI50,OVCAR-8 ovarian,2.57 µM
same,TGI,OVCAR-8 ovarian,6.64 µM
same,GI50,SF-295 CNS,3.19 µM
same,TGI,SF-295 CNS,12.8 µM
same,GI50,BT-549 breast,3.12 µM
same,TGI,BT-549 breast,11.2 µM
same,GI50,T-47D breast,3.31 µM
same,TGI,T-47D breast,14.7 µM
same,GI50,SK-OV-3 ovarian,14.5 µM
same,TGI,SK-OV-3 ovarian,27.6 µM
same,GI50,NCI-H23 lung,2.42 µM
same,TGI,NCI-H23 lung,5.56 µM
same,GI50,A498 renal,5.81 µM
same,TGI,A498 renal,18.2 µM
same,GI50,SK-MEL-5 melanoma,2.99 µM
same,TGI,SK-MEL-5 melanoma,8.4 µM
same,GI50,EKVX NSCLC,1.85 µM
same,TGI,EKVX NSCLC,4.5 µM
same,GI50,U251 CNS,1.69 µM
same,TGI,U251 CNS,3.24 µM
same,GI50,COLO 205 colon,2.03 µM
same,TGI,COLO 205 colon,3.88 µM
same,GI50,SN12C renal,2 µM
same,TGI,SN12C renal,4.32 µM
same,GI50,OVCAR-4 ovarian,1.92 µM
same,TGI,OVCAR-4 ovarian,3.48 µM
same,GI50,SK-MEL-2 melanoma,1.89 µM
same,TGI,SK-MEL-2 melanoma,4.4 µM
same,GI50,HL-60(TB) leukemia,1.77 µM
same,TGI,HL-60(TB) leukemia,4.81 µM
same,GI50,KM12 colon,1.81 µM
same,TGI,KM12 colon,3.49 µM
same,GI50,NCI-H522 lung,1.5 µM
same,TGI,NCI-H522 lung,3.24 µM
same,GI50,SNB-19 CNS,3.82 µM
same,TGI,SNB-19 CNS,13.3 µM
same,GI50,MOLT-4 leukemia,2.85 µM
same,TGI,MOLT-4 leukemia,8.02 µM
same,GI50,HOP-62 NSCLC,9.35 µM
same,TGI,HOP-62 NSCLC,21.6 µM
same,GI50,A549 NSCLC,3.68 µM
same,TGI,A549 NSCLC,14.9 µM
same,GI50,ACHN renal,2.02 µM
same,TGI,ACHN renal,4.81 µM
same,GI50,UACC-62 melanoma,1.73 µM
same,TGI,UACC-62 melanoma,3.75 µM
same,GI50,HCT-15 colon,2.71 µM
same,TGI,HCT-15 colon,9.22 µM
same,GI50,CCRF-CEM leukemia,2.68 µM
same,TGI,CCRF-CEM leukemia,6.4 µM
same,GI50,LOX IMVI melanoma,1.66 µM
same,TGI,LOX IMVI melanoma,3.02 µM
same,GI50,OVCAR-5 ovarian,1.8 µM
same,TGI,OVCAR-5 ovarian,4.34 µM
same,GI50,RPMI-8226 leukemia,3.43 µM
same,TGI,RPMI-8226 leukemia,11.2 µM
same,GI50,NCI-H460 lung,2.38 µM
same,TGI,NCI-H460 lung,5.35 µM
same,GI50,M14 melanoma,1.67 µM
same,TGI,M14 melanoma,3.03 µM
same,GI50,SK-MEL-28 melanoma,2.5 µM
same,TGI,SK-MEL-28 melanoma,6.12 µM
same,GI50,MDA-MB-231 breast,1.99 µM
same,TGI,MDA-MB-231 breast,4.39 µM
same,GI50,UACC-257 melanoma,1.6 µM
same,TGI,UACC-257 melanoma,3.23 µM
same,GI50,K-562 leukemia,3.01 µM
same,TGI,K-562 leukemia,57 µM
same,GI50,786-0 renal,3.77 µM
same,TGI,786-0 renal,13.9 µM
same,GI50,RXF 393 renal,1.89 µM
same,TGI,RXF 393 renal,3.37 µM
same,GI50,SNB-75 CNS,3.58 µM
same,TGI,SNB-75 CNS,14.1 µM
same,GI50,SW-620 colon,1.78 µM
same,TGI,SW-620 colon,3.3 µM
same,GI50,HS 578T breast,2.48 µM
same,TGI,HS 578T breast,7.97 µM
same,GI50,HCT-116 colon,1.64 µM
same,TGI,HCT-116 colon,2.99 µM
same,GI50,MDA-MB-435,2.59 µM
same,TGI,MDA-MB-435,7.31 µM
